Experimental data published in patent US20170202218A1, “Materials for Disinfection Produced by Non-Thermal Plasma” (DREXEL UNIVERSITY, priority 2010, published 2017).

What was measured:
E coli = conditions: in solution, after only 30 seconds; cited from earlier work
E. coli = conditions: dispersed for 15 sec, no corona discharge applied
Source text: An agar place of bacterial (containing colonies of 10^5 E. coli) was placed on top of a grounded metal plate.

[H]/N=C(\N/C(=N/[H])NCCCCCCNC(=N)NC(=N)Nc1ccc(Cl)cc1)Nc1ccc(Cl)cc1 [chlorhexidine]
log reduction in E coli (E coli): 3.5 log

CCO [alcohol, ethanol]
disinfection of E. coli on agar plate (E. coli): some spotty effects
